According to US8450266B2 (Ipsen Pharma S.A.S., priority 2008, dated 2013):
Where a SMILES comes first, the peptide text is derived from it. [ ]: non-standard residue; d: D form. The star is where a group is joined. X2 = CCCCCCN1C(=O)CC(*)C1=O; Decanoyl = CCCCCCCCCC(=O)*; Ac6c = NC1(C(=O)O)CCCCC1; Orn = NCCC[C@H](N)C(=O)O; X1 = CCCN1C(=O)CC(*)C1=O; Hexanoyl = CCCCCC(=O)*

How the values were obtained:
[1] = Human plasma half-life assay (LC-MS); assay type: in vitro ADME; conditions: incubated at 37° C., read-out: Human Plasma T½ (converted)
Procedure: (§1) B. Human and Rat Plasma Half-Life Assay
(§2) 50 μl, was removed at various times, like at 0, 1, 2, 3, 4, 8, 24, 32, 48, 56, 72 hours, mixed with 5 μL formic acid and 150 μL acetonitrile in a microcentrifuge tube, vertexed, and centrifuged for 10 minutes at 10K rpm. The supernatant was transferred to an injection vial and analyzed by LC-MS. The LC-MS system consisted of an API4000 mass spectrometer with an ESI probe. Positive ion mode and full scan detection were used. HPLC separation was carried out on a Luna 3μ C8 (2), 2×30 mm column with a gradient from 90% A to 90% B in 10 minutes at a flow rate of 0.3 ml/min. Buffer A was 1% formic acid in water and buffer B was 1% formic acid acetonitrile.

[2] = Rat plasma half-life assay (LC-MS); assay type: in vitro ADME; conditions: incubated at 37° C., read-out: Rat Plasma T½ (converted)
Procedure: as §1, §2

Structure (SMILES)	half-life at 0.1 mg/ml [1]	half-life at 0.1 mg/ml [2]	half-life at 0.1 mg/mL [1]	half-life at 0.1 mg/mL [2]
CCCCCCN1C(=O)CC(SC[C@H](NC(=O)[C@H](CCCCN)NC(=O)[C@H](CCC(N)=O)NC(=O)[C@H](C)NC(=O)[C@H](CC(C)C)NC(=O)[C@H](CC(C)C)NC(=O)[C@H](Cc2c[nH]c3ccccc23)NC(=O)[C@H](CC(N)=O)NC(=O)[C@@H](NC(=O)[C@H](Cc2ccccc2)NC(=O)[C@H](CC(=O)O)NC(=O)[C@H](CCC(N)=O)NC(=O)[C@H](CCC(N)=O)NC(=O)[C@H](Cc2c[nH]cn2)NC(=O)[C@@H](NC(=O)[C@H](CCCCN)NC(=O)[C@H](CC(=O)O)NC(=O)[C@H](CCSC)NC(=O)[C@H](C)NC(=O)[C@@H](NC(=O)[C@H](CO)NC(=O)[C@H](Cc2ccc(O)cc2)NC(=O)[C@H](CC(=O)O)NC(=O)[C@H](CO)NC(=O)C2(NC(C)=O)CCCCC2)[C@@H](C)CC)[C@@H](C)CC)C(C)C)C(=O)N[C@@H](CCCCN)C(=O)N[C@@H](CCCCN)C(=O)N[C@@H](CC(N)=O)C(=O)N[C@@H](CC(=O)O)C(=O)N[C@@H](Cc2c[nH]c3ccccc23)C(=O)N[C@@H](CCCCN)C(=O)N[C@@H](Cc2c[nH]cn2)C(=O)N[C@@H](CC(N)=O)C(=O)N[C@H](C(=O)N[C@H](C(=O)N[C@@H](CCC(N)=O)C(=O)O)[C@@H](C)O)[C@@H](C)CC)C1=O (stereo partly drawn) [Example 22, [Ac-A6c^7, Cys(Hsu)^31]hGIP(7-42)-OH] (Ac-[Ac6c]SDYSIAMDKIHQQDFVNWLLAQKC(X2)KKNDWKHNITQ-OH)	7.7 h	5 h	–	–
CCCN1C(=O)CC(SC[C@H](NC(=O)[C@H](CCCCN)NC(=O)[C@H](CCC(N)=O)NC(=O)[C@H](C)NC(=O)[C@H](CC(C)C)NC(=O)[C@H](CC(C)C)NC(=O)[C@H](Cc2c[nH]c3ccccc23)NC(=O)[C@H](CC(N)=O)NC(=O)[C@@H](NC(=O)[C@H](Cc2ccccc2)NC(=O)[C@H](CC(=O)O)NC(=O)[C@H](CCC(N)=O)NC(=O)[C@H](CCC(N)=O)NC(=O)[C@H](Cc2c[nH]cn2)NC(=O)[C@@H](NC(=O)[C@H](CCCCN)NC(=O)[C@H](CC(=O)O)NC(=O)[C@H](CCSC)NC(=O)[C@H](C)NC(=O)[C@@H](NC(=O)[C@H](CO)NC(=O)[C@H](Cc2ccc(O)cc2)NC(=O)[C@H](CC(=O)O)NC(=O)[C@H](CO)NC(=O)C2(NC(=O)[C@H](Cc3ccccc3)NC(C)=O)CCCCC2)[C@@H](C)CC)[C@@H](C)CC)C(C)C)C(=O)N[C@@H](CCCCN)C(=O)N[C@@H](CCCCN)C(=O)N[C@@H](CC(N)=O)C(=O)N[C@@H](CC(=O)O)C(=O)N[C@@H](Cc2c[nH]c3ccccc23)C(=O)N[C@@H](CCCCN)C(=O)N[C@@H](Cc2c[nH]cn2)C(=O)N[C@@H](CC(N)=O)C(=O)N[C@H](C(=O)N[C@H](C(=O)N[C@@H](CCC(N)=O)C(=O)O)[C@@H](C)O)[C@@H](C)CC)C1=O (stereo partly drawn) [Example 30, [Ac-Phe^6, A6c^7, Cys(Psu)^31]hGIP(6-42)-OH] (Ac-F[Ac6c]SDYSIAMDKIHQQDFVNWLLAQKC(X1)KKNDWKHNITQ-OH)	–	–	7.2 h	7.6 h
CCCCCCCCCC(=O)NCCC[C@H](NC(=O)[C@H](CCCCN)NC(=O)[C@H](CCC(N)=O)NC(=O)[C@H](C)NC(=O)[C@H](CC(C)C)NC(=O)[C@H](CC(C)C)NC(=O)[C@H](Cc1c[nH]c2ccccc12)NC(=O)[C@H](CC(N)=O)NC(=O)[C@@H](NC(=O)[C@H](Cc1ccccc1)NC(=O)[C@H](CC(=O)O)NC(=O)[C@H](CCC(N)=O)NC(=O)[C@H](CCC(N)=O)NC(=O)[C@H](Cc1c[nH]cn1)NC(=O)[C@@H](NC(=O)[C@H](CCCCN)NC(=O)[C@H](CC(=O)O)NC(=O)[C@H](CCSC)NC(=O)[C@H](C)NC(=O)[C@@H](NC(=O)[C@H](CO)NC(=O)[C@H](Cc1ccc(O)cc1)NC(=O)[C@H](CC(=O)O)NC(=O)[C@H](CO)NC(=O)C1(NC(C)=O)CCCCC1)[C@@H](C)CC)[C@@H](C)CC)C(C)C)C(=O)N[C@@H](CCCCN)C(=O)N[C@@H](CCCCN)C(=O)N[C@@H](CC(N)=O)C(=O)N[C@@H](CC(=O)O)C(=O)N[C@@H](Cc1c[nH]c2ccccc12)C(=O)N[C@@H](CCCCN)C(=O)N[C@@H](Cc1c[nH]cn1)C(=O)N[C@@H](CC(N)=O)C(=O)N[C@H](C(=O)N[C@H](C(=O)N[C@@H](CCC(N)=O)C(=O)O)[C@@H](C)O)[C@@H](C)CC [Example 13, [Ac-A6c^7, Orn^31(N-C(O)-(CH2)8-CH3)]hGIP(7-42)-OH] (Ac-[Ac6c]SDYSIAMDKIHQQDFVNWLLAQK[Orn](Decanoyl)KKNDWKHNITQ-OH)	17.8 h	19 h	–	–
CCCCCCCCCC(=O)NCCC[C@H](NC(=O)[C@H](CCCCN)NC(=O)[C@H](CCC(N)=O)NC(=O)[C@H](C)NC(=O)[C@H](CC(C)C)NC(=O)[C@H](CC(C)C)NC(=O)[C@H](Cc1c[nH]c2ccccc12)NC(=O)[C@H](CC(N)=O)NC(=O)[C@@H](NC(=O)[C@H](Cc1ccccc1)NC(=O)[C@H](CC(=O)O)NC(=O)[C@H](CCC(N)=O)NC(=O)[C@H](CCC(N)=O)NC(=O)[C@H](Cc1c[nH]cn1)NC(=O)[C@@H](NC(=O)[C@H](CCCCN)NC(=O)[C@H](CC(=O)O)NC(=O)[C@H](CCSC)NC(=O)[C@H](C)NC(=O)[C@@H](NC(=O)[C@H](CO)NC(=O)[C@H](Cc1ccc(O)cc1)NC(=O)[C@H](CC(=O)O)NC(=O)[C@H](CO)NC(=O)C1(N)CCCCC1)[C@@H](C)CC)[C@@H](C)CC)C(C)C)C(=O)N[C@@H](CCCCN)C(=O)N[C@@H](CCCCN)C(=O)N[C@@H](CC(N)=O)C(=O)N[C@@H](CC(=O)O)C(=O)N[C@@H](Cc1c[nH]c2ccccc12)C(=O)N[C@@H](CCCCN)C(=O)N[C@@H](Cc1c[nH]cn1)C(=O)N[C@@H](CC(N)=O)C(=O)N[C@H](C(=O)N[C@H](C(=O)N[C@@H](CCC(N)=O)C(=O)O)[C@@H](C)O)[C@@H](C)CC [Example 14, [A6c^7, Orn^31(N-C(O)-(CH2)8-CH3)]hGIP(7-42)-OH] (H-[Ac6c]SDYSIAMDKIHQQDFVNWLLAQK[Orn](Decanoyl)KKNDWKHNITQ-OH)	4.1 h	15.3 h	–	–
CCCCCC(=O)N[C@@H](CO)C(=O)N[C@@H](CC(=O)O)C(=O)N[C@@H](Cc1ccc(O)cc1)C(=O)N[C@@H](CO)C(=O)N[C@H](C(=O)N[C@@H](C)C(=O)N[C@@H](CCSC)C(=O)N[C@@H](CC(=O)O)C(=O)N[C@@H](CCCCN)C(=O)N[C@H](C(=O)N[C@@H](Cc1c[nH]cn1)C(=O)N[C@@H](CCC(N)=O)C(=O)N[C@@H](CCC(N)=O)C(=O)N[C@@H](CC(=O)O)C(=O)N[C@@H](Cc1ccccc1)C(=O)N[C@H](C(=O)N[C@@H](CC(N)=O)C(=O)N[C@@H](Cc1c[nH]c2ccccc12)C(=O)N[C@@H](CC(C)C)C(=O)N[C@@H](CC(C)C)C(=O)N[C@@H](C)C(=O)N[C@@H](CCC(N)=O)C(=O)N[C@@H](CCCCN)C(=O)N[C@@H](CSC1CC(=O)N(CCC)C1=O)C(=O)N[C@@H](CCCCN)C(=O)N[C@@H](CCCCN)C(=O)N[C@@H](CC(N)=O)C(=O)N[C@@H](CC(=O)O)C(=O)N[C@@H](Cc1c[nH]c2ccccc12)C(=O)N[C@@H](CCCCN)C(=O)N[C@@H](Cc1c[nH]cn1)C(=O)N[C@@H](CC(N)=O)C(=O)N[C@H](C(=O)N[C@H](C(=O)N[C@@H](CCC(N)=O)C(=O)O)[C@@H](C)O)[C@@H](C)CC)C(C)C)[C@@H](C)CC)[C@@H](C)CC (stereo partly drawn) [Example 41, [CH3-(CH2)4-C(O)-Ser^8, Cys(Psu)^31]hGIP(8-42)-OH] (Hexanoyl-SDYSIAMDKIHQQDFVNWLLAQKC(X1)KKNDWKHNITQ-OH)	–	–	5.9 h	3.7 h
CC[C@H](C)[C@H](NC(=O)[C@H](CCCCN)NC(=O)[C@H](CC(=O)O)NC(=O)[C@H](CCSC)NC(=O)[C@H](C)NC(=O)[C@@H](NC(=O)C1(NC(=O)[C@H](Cc2ccc(O)cc2)NC(=O)[C@H](CC(=O)O)NC(=O)[C@H](CO)NC(=O)[C@@H](NC(=O)[C@H](Cc2ccccc2)NC(=O)[C@@H](NC(=O)CNC(=O)[C@H](CCC(=O)O)NC(=O)CCc2ccc(O)cc2)[C@@H](C)O)[C@@H](C)CC)CCCCC1)[C@@H](C)CC)C(=O)N[C@@H](Cc1c[nH]cn1)C(=O)N[C@@H](CCC(N)=O)C(=O)N[C@@H](CCC(N)=O)C(=O)N[C@@H](CC(=O)O)C(=O)N[C@@H](Cc1ccccc1)C(=O)N[C@H](C(=O)N[C@@H](CC(N)=O)C(=O)N[C@@H](Cc1c[nH]c2ccccc12)C(=O)N[C@@H](CC(C)C)C(=O)N[C@@H](CC(C)C)C(=O)N[C@@H](C)C(=O)N[C@@H](CCC(N)=O)C(=O)N[C@@H](CCCCN)C(=O)NCC(=O)N[C@@H](CCCCN)C(=O)N[C@@H](CCCCN)C(=O)N[C@@H](CC(N)=O)C(=O)N[C@@H](CC(=O)O)C(=O)N[C@@H](Cc1c[nH]c2ccccc12)C(=O)N[C@@H](CCCCN)C(=O)N[C@@H](Cc1c[nH]cn1)C(=O)N[C@@H](CC(N)=O)C(=O)N[C@H](C(=O)N[C@H](C(=O)N[C@@H](CCC(N)=O)C(=O)O)[C@@H](C)O)[C@@H](C)CC)C(C)C [Example 46, (4Hppa^2, A6c^11)hGIP(2-42)-OH]	–	–	30.8 h	11.9 h
